One block for each compound: values may come before it.
Columns and labels:
[1] = Ultrasound delivery of Riboflavin-5-Phosphate into porcine corneas, fluorescent measurement of extract; conditions: epi-off; 0.1% solution; ultrasound 40 kHz, mechanical index 0.2, for 5 minutes or less
Protocol: Riboflavin-5-Phosphate (R5P), 1.5 mL, 0.1% solution was applied to a porcine eyeball, epi-off. The ultrasound parameters were 40 kHz, mechanical index 0.2. The cornea was in full contact with R5P over indicated time period. The cornea was excised and weighed. Extracted supernatant with R5P was used for fluorescent measurement.

[2] = tested on: experimental autoimmune uveitis (EAU); test: In vivo delivery of dexamethasone into mice eyes for treatment of experimental autoimmune uveitis (ultrasound versus intravitreal injection)
Protocol: The procedure relates to an in vivo study of delivering small molecules into mice eyes for treatment of experimental autoimmune uveitis (EAU). The small molecules used were dexamethasone, with of a molecular weight of about […]. For a given animal subject, the drug was delivered via intravitreal injection (10 μg in 1 μL balanced salt solution), to the left eye. For the right eye, the drug (10 μg in 1 μL balanced salt solution, repeat 3 times) was delivered by 40 kHz ultrasound.
A timeline is illustrated of the experimental procedure. EAU mice were provided as described. The final n=2, as one mouse was dead on day 10 during the first treatment. On day 0, EAU induction occurred. Baseline imaging by confocal scanning laser ophthalmology (cSLO) and optical coherence tomography (OCT) occurred on day 0. On day 10, the drug was applied via ultrasound on the right eye. The drug was applied via intravitreal injection to the left eye. On day 13, imaging was conducted via cSLO and OCT. On days 13, 17, and 20, the drug was delivered to the right eye via ultrasound. On day 21, the mice were sacrificed for histology. Imaging was conducted by cSLO and OCT.

[3] = Ultrasound delivery of riboflavin into ex vivo pig corneas; set-up: species or system porcine
Protocol: For example, a riboflavin molecule may be delivered into a cornea by ultrasound. An ex vivo study was conducted of delivering small molecules into porcine corneal tissue. The small molecules used was riboflavin. The small molecules may have a molecular weight of about 376 g/mol or less. By using ultrasound at 40 kHz, at least 15 μg/mL of riboflavin was delivered into the deep corneal stromal tissue.
An illustration is provided of riboflavin 1 mg/mL delivered into ex vivo pig corneas. The riboflavin concentration in μg/mL is shown for different circumstances, such as epithelium debrided (Epi-off) cornea with 30 minutes riboflavin contact, Epi-Off with 3 cycles of 90 seconds ultrasound+15 minutes breaks in between and Epi-Off with 3 cycles of 90 seconds ultrasound+5 minutes break in between. 0.1% Riboflavin solution, Peschke D was delivered in ex-vivo pig corneas. The 15 μg/mL safety threshold is exceeded by applying 3 cycles of 90 seconds ultrasound with 5 minute breaks in between.

concentration delivered into porcine corneas compared with typical Dresden protocol (30 minutes instillation) [1]: reached the therapeutic threshold
Compound: Cc1cc2nc3c(=O)[nH]c(=O)nc-3n(C[C@H](O)[C@H](O)[C@H](O)COP(=O)(O)O)c2cc1C [Riboflavin-5-Phosphate]

Compound: C[C@@H]1C[C@H]2[C@@H]3CCC4=CC(=O)C=C[C@]4(C)[C@@]3(F)[C@@H](O)C[C@]2(C)[C@@]1(O)C(=O)CO [dexamethasone]
retina injury (FFA photo and OCT sections) ([2]; left eye, intravitreal injection 10 μg in 1 μL, retinal change still existed at day 21): retina injury caused by intravitreal injection
retina injury (fundus photos, FFA) ([2]; right eye of Mouse 1 and Mouse 2, drug delivered by 40 kHz ultrasound, days 13 and 21): no injury of retina

riboflavin delivered into the deep corneal stromal tissue ([3]; ex vivo porcine cornea, ultrasound at 40 kHz): at least 15 μg/mL
Compound: Cc1cc2nc3c(=O)[nH]c(=O)nc-3n(C[C@H](O)[C@H](O)[C@H](O)CO)c2cc1C [riboflavin]
riboflavin concentration in cornea versus 15 μg/mL safety threshold ([3]; ex vivo pig cornea, Epi-Off, 0.1% riboflavin solution, 3 cycles of 90 seconds ultrasound with 5 minute breaks in between): > 15 µg/mL
